For data set [1], the system named is colorectal (HT-29) carcinoma cell line. Nature of the data set: Extracellular acidification (delta pH of medium) in HT-29 cells. The data set is classed as cell-based. As to conditions: for reduction of extracellular acidification: HT-29, hypoxia (0.2% oxygen). Here is the method:
(§1) The experiment was set up as previously described (Dubois et al, 2007). A colorectal (HT-29) (FIG. 5a) and a cervical (HeLa) (FIG. 5b) carcinoma cell line were tested in normoxic (ambient oxygen concentration) and hypoxic (0.2% oxygen) conditions. HT-29 cells are known to be constitutive hypoxia inducible CA IX (CA IX expression under normoxia and increased CA IX expression upon hypoxia) expressing cells. Therefore, compounds were added after 1 h of hypoxic exposure (to ensure active CA IX) and incubation was done for another 23 h (total of 24 h hypoxia). HeLa cells are hypoxia inducible (at lower density) CA IX expressing cells. Therefore, HeLa were first incubated for 24 h hypoxia to ensure CA IX expression in the first place (time point assessed in time series experiments). Afterwards, compounds were added and cells were incubated for another 24 h.
(§2) Experiments were performed in triplicate for each condition. The described conditions were done both for HT-29 and HeLa under normoxic and hypoxic conditions.
(§3) Following conditions were assessed: • Blank 1 mM or 0.1 mM (no addition of compound, only DMSO/PBS) • DH307 1 mM or 0.1 mM • DH310 1 mM or 0.1 mM • DH338 1 mM or 0.1 mM • DH348 1 mM or 0.1 mM • S=AEBS (4-(2-aminoethylbenzenesulfonamide); Sigma) 1 mM or 0.1 mM (known to reduce extracellular pH as described by (Svastova et al, 2004))
(§4) Cells were seeded in 6 cm dishes (HT-29: 10e6; HeLa: 4×10^5: to compensate for cell size) in 5 ml of DMEM supplemented with 10% FCS. The day after, medium was replaced by 3.6 ml of freshly prepared DMEM/FCS 10%, from which the pH was measured=pH at incubation), after which dishes were placed in the hypoxic chamber (normoxic dishes remained at ambient air in the incubator: 37° C., 95% humidity, 5% CO2). Compounds were added (1 h for HT-29 or 24 h for HeLa after start hypoxic exposure) to have a final concentration of 1 mM or 0.1 mM, by adding 400 μl to the dishes, starting from a 10 or 1 mM stock (DMSO final concentration 0.1%). Blanc controls received DMSO/PBS without compound. pH of the medium was measured after 24 h (HT-29) or 48 h (HeLa) inside the hypoxic chamber after calibration of the electrode to reduced oxygen concentrations. Delta pH (pH at end hypoxic exposure−pH of replacement medium before incubation) were calculated and shown in the graph of FIGS. 5a and 5b.

A further data set deals with hCA IX (Homo sapiens (Human), UniProt Q16790). Nature of the data set: CA-catalyzed CO2 hydration stopped-flow inhibition assay, hCA IX.
Data set [2] concerns cervical (HeLa) carcinoma cell line. Put plainly: Extracellular acidification (delta pH of medium) in HeLa cells. It counts as cell-based, human. Here is the method: as §1, §2, §3, §4
Setting [3] is: read-out: KI hCA IX, stopped-flow CO2 hydration, pH 7.5, 15 min preincubation.

One may read the melting point as the temperature of the solid-liquid transition. What is called Ki is a measure of affinity in units of concentration, obtained from inhibition or displacement.

Where two headings read alike, the source gives them in different places.

Protocol for hCA IX: The uncatalyzed rates were determined in the same manner and subtracted from the total observed rates. Stock solutions of inhibitor (1 mM) were prepared in distilled-deionized water with 10-20% (v/v) DMSO (which is not inhibitory at these concentrations) and dilutions up to 0.1 nM were done thereafter with distilled-deionized water. Inhibitor and enzyme solutions were preincubated together for 15 min at room temperature prior to assay, in order to allow for the formation of CA IX-inhibitor complex. The inhibition constants were obtained by non-linear last-squares methods using PRISM 3 and represent the mean from at least three different determinations.

For “N-[2-(2-methyl-5-nitro-imidazol-1-yl)ethyl]sulfamate [Compound 9]”, the “reduction of extracellular acidification” value in data set [1] (1 mM) is “best results”.

In the case of `NS(=O)(=O)c1ccc(NC(=O)Cn2ccnc2[N+](=O)[O-])cc1` [Compound 4a, 2-(2-nitro-imidazol-1-yl)-N-(4-sulfamoylphenyl)acetamide], the melting point lay within 163 to 165 °C. The Ki at hCA IX (setting [3]) is 70 nM.

The compound `NS(=O)(=O)c1cccc(NC(=O)Cn2ccnc2[N+](=O)[O-])c1` [Compound 4b, 2-(2-nitro-imidazol-1-yl)-N-(3-sulfamoylphenyl)acetamide] returned a melting point of 195 to 197 °C.

Compound `NS(=O)(=O)c1ccc(CCNC(=O)Cn2ccnc2[N+](=O)[O-])cc1` [Compound 4d, 2-(2-nitro-imidazol-1-yl)-N-[2-(4-sulfamoylphenyl)ethyl]acetamide] registered a melting point of 139 to 141 °C. Further, the Ki on hCA IX came out at 7.3 nM.

Turning to `Cc1ncc([N+](=O)[O-])n1CCNC(=S)Nc1ccc(S(N)(=O)=O)cc1` [Compound 6a, N-(4-sulfamoylphenyl)-N-((2-aminoethyl)-2-methyl-5-nitroimidazolyl)thiourea], the inhibitory constant (Ki) on hCA IX (setting [3]) is 7.3 nM.

Take `Cc1ncc([N+](=O)[O-])n1CCNC(=S)NCc1ccc(S(N)(=O)=O)cc1` [Compound 6c, N-(4-sulfamoylbenzyl)-N-((2-aminoethyl)-2-methyl-5-nitroimidazolyl)thiourea]: the “reduction of extracellular acidification” value was “strong reduction” in data set [2] (hypoxia (0.2% oxygen), 0.1 mM) and “made the medium alkaline” in data set [2] (hypoxia (0.2% oxygen), 1 mM). Also, the Ki at hCA IX (setting [3]) came out at 8.3 nM.

For `NCCc1ccc(S(N)(=O)=O)cc1` [S, 4-(2-aminoethylbenzenesulfonamide), reference compound], the “reduction of extracellular acidification” value in data set [1] (0.1 mM) is “less”; in data set [1] (1 mM), “effectively reduced the extracellular acidification”; in data set [2] (hypoxia (0.2% oxygen), 0.1 mM) it was “less”; in data set [2] (hypoxia (0.2% oxygen), 1 mM) it was “effectively reduced the extracellular acidification”. Besides, the “effect on extracellular acidification upon normoxic exposure” value in data set [1] (HT-29, normoxia) was “No effect”; in data set [2] (normoxia), “No effect”.

Regarding `Cc1ncc([N+](=O)[O-])n1CCNC(=S)NCCc1ccc(S(N)(=O)=O)cc1` [Compound 6d, N-(4-sulfamoylphenylethyl)-N-((2-aminoethyl)-2-methyl-5-nitroimidazolyl)thiourea], on hCA IX (setting [3]), the Ki turned out to be 7.8 nM.

In turn, `Cc1ncc([N+](=O)[O-])n1CCNS(N)(=O)=O` [Compound 7, N-[2-(2-methyl-5-nitro-imidazol-1-yl)ethyl]sulfamide] had a melting point of 122 °C. Besides, the “reduction of extracellular acidification” value in data set [1] (0.1 mM) was “additional reduction compared with the other compounds”. Also, in data set [1] (1 mM), the “reduction of extracellular acidification” value was “best results”. Besides, the “reduction of extracellular acidification” value in data set [2] (hypoxia, concentration not specified) is “best results”.
